Reference: PubChem BioAssay (NCI)
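Cells were grown in 96-well plates and exposed to each compound for 48 hours at five concentrations; endpoints were interpolated linearly between bracketing concentrations, or set to the highest concentration if not reached. GI50 marks 50% less growth. The concentration for full growth arrest is given as TGI.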

Tests used:
Test in all cases: growth of human tumour cells (NCI), 48 h
786-0 renal = system: 786-0 renal
RPMI-8226 leukemia = system: RPMI-8226 leukemia
SK-MEL-5 melanoma = system: SK-MEL-5 melanoma
TK-10 renal = system: TK-10 renal
LOX IMVI melanoma = system: LOX IMVI melanoma
HL-60(TB) leukemia = system: HL-60(TB) leukemia
CAKI-1 renal = system: CAKI-1 renal
SF-539 CNS = system: SF-539 CNS
DMS 273 small cell lung = system: DMS 273 small cell lung
OVCAR-5 ovarian = system: OVCAR-5 ovarian
SNB-75 CNS = system: SNB-75 CNS
SK-MEL-28 melanoma = system: SK-MEL-28 melanoma
IGROV1 ovarian = system: IGROV1 ovarian
SN12C renal = system: SN12C renal
SK-MEL-2 melanoma = system: SK-MEL-2 melanoma
NCI-H23 lung = system: NCI-H23 lung
OVCAR-3 ovarian = system: OVCAR-3 ovarian
HOP-62 NSCLC = system: HOP-62 NSCLC
MOLT-4 leukemia = system: MOLT-4 leukemia
SK-OV-3 ovarian = system: SK-OV-3 ovarian
COLO 205 colon = system: COLO 205 colon
OVCAR-8 ovarian = system: OVCAR-8 ovarian
HT29 colon = system: HT29 colon
MALME-3M melanoma = system: MALME-3M melanoma
SF-295 CNS = system: SF-295 CNS
A549 NSCLC = system: A549 NSCLC
DLD-1 colon = system: DLD-1 colon
M19-MEL melanoma = system: M19-MEL melanoma
M14 melanoma = system: M14 melanoma
RXF 393 renal = system: RXF 393 renal
SF-268 CNS = system: SF-268 CNS
KM12 colon = system: KM12 colon
LXFL 529 NSCLC = system: LXFL 529 NSCLC
K-562 leukemia = system: K-562 leukemia
SNB-19 CNS = system: SNB-19 CNS
NCI-H226 lung = system: NCI-H226 lung
SNB-78 CNS = system: SNB-78 CNS
ACHN renal = system: ACHN renal
HCT-116 colon = system: HCT-116 colon
HCT-15 colon = system: HCT-15 colon
UACC-257 melanoma = system: UACC-257 melanoma
XF 498 CNS = system: XF 498 CNS
A498 renal = system: A498 renal
KM20L2 colon = system: KM20L2 colon
NCI-H522 lung = system: NCI-H522 lung
CCRF-CEM leukemia = system: CCRF-CEM leukemia
UACC-62 melanoma = system: UACC-62 melanoma
DMS 114 small cell lung = system: DMS 114 small cell lung
HCC-2998 colon = system: HCC-2998 colon
SW-620 colon = system: SW-620 colon
EKVX NSCLC = system: EKVX NSCLC
HOP-18 NSCLC = system: HOP-18 NSCLC
UO-31 renal = system: UO-31 renal
OVCAR-4 ovarian = system: OVCAR-4 ovarian
HOP-92 NSCLC = system: HOP-92 NSCLC
SR leukemia = system: SR leukemia
U251 CNS = system: U251 CNS
NCI-H460 lung = system: NCI-H460 lung

[O-]c1ccccc1/C=N/c1nccs1.[O-]c1ccccc1/C=N/c1nccs1.[O]=[U+2]=[O]
GI50 (786-0 renal): 25 µM
TGI (786-0 renal): > 100 µM
GI50 (RPMI-8226 leukemia): 37.7 µM
TGI (RPMI-8226 leukemia): > 100 µM
GI50 (SK-MEL-5 melanoma): > 100 µM
TGI (SK-MEL-5 melanoma): > 100 µM
GI50 (TK-10 renal): 33.6 µM
TGI (TK-10 renal): 78.7 µM
GI50 (LOX IMVI melanoma): 25.7 µM
TGI (LOX IMVI melanoma): > 100 µM
GI50 (HL-60(TB) leukemia): 35.5 µM
TGI (HL-60(TB) leukemia): > 100 µM
GI50 (CAKI-1 renal): 37.9 µM
TGI (CAKI-1 renal): > 100 µM
GI50 (SF-539 CNS): 23.6 µM
TGI (SF-539 CNS): > 100 µM
GI50 (DMS 273 small cell lung): 7.15 µM
TGI (DMS 273 small cell lung): > 100 µM
GI50 (OVCAR-5 ovarian): > 100 µM
TGI (OVCAR-5 ovarian): > 100 µM
GI50 (SNB-75 CNS): > 100 µM
TGI (SNB-75 CNS): > 100 µM
GI50 (SK-MEL-28 melanoma): > 100 µM
TGI (SK-MEL-28 melanoma): > 100 µM
GI50 (IGROV1 ovarian): 42.4 µM
TGI (IGROV1 ovarian): > 100 µM
GI50 (SN12C renal): > 100 µM
TGI (SN12C renal): > 100 µM
GI50 (SK-MEL-2 melanoma): > 100 µM
TGI (SK-MEL-2 melanoma): > 100 µM
GI50 (NCI-H23 lung): > 100 µM
TGI (NCI-H23 lung): > 100 µM
GI50 (OVCAR-3 ovarian): > 100 µM
TGI (OVCAR-3 ovarian): > 100 µM
GI50 (HOP-62 NSCLC): > 100 µM
TGI (HOP-62 NSCLC): > 100 µM
GI50 (MOLT-4 leukemia): 27.4 µM
TGI (MOLT-4 leukemia): > 100 µM
GI50 (SK-OV-3 ovarian): > 100 µM
TGI (SK-OV-3 ovarian): > 100 µM
GI50 (COLO 205 colon): > 100 µM
TGI (COLO 205 colon): > 100 µM
GI50 (OVCAR-8 ovarian): > 100 µM
TGI (OVCAR-8 ovarian): > 100 µM
GI50 (HT29 colon): > 100 µM
TGI (HT29 colon): > 100 µM
GI50 (MALME-3M melanoma): > 100 µM
TGI (MALME-3M melanoma): > 100 µM
GI50 (SF-295 CNS): > 100 µM
TGI (SF-295 CNS): > 100 µM
GI50 (A549 NSCLC): > 100 µM
TGI (A549 NSCLC): > 100 µM
GI50 (DLD-1 colon): 22.4 µM
TGI (DLD-1 colon): > 100 µM
GI50 (M19-MEL melanoma): > 100 µM
TGI (M19-MEL melanoma): > 100 µM
GI50 (M14 melanoma): > 100 µM
TGI (M14 melanoma): > 100 µM
GI50 (RXF 393 renal): > 100 µM
TGI (RXF 393 renal): > 100 µM
GI50 (SF-268 CNS): > 100 µM
TGI (SF-268 CNS): > 100 µM
GI50 (KM12 colon): > 100 µM
TGI (KM12 colon): > 100 µM
GI50 (LXFL 529 NSCLC): 29.1 µM
TGI (LXFL 529 NSCLC): > 100 µM
GI50 (K-562 leukemia): 57.1 µM
TGI (K-562 leukemia): > 100 µM
GI50 (SNB-19 CNS): 12.7 µM
TGI (SNB-19 CNS): > 100 µM
GI50 (NCI-H226 lung): > 100 µM
TGI (NCI-H226 lung): > 100 µM
GI50 (SNB-78 CNS): > 100 µM
TGI (SNB-78 CNS): > 100 µM
GI50 (ACHN renal): > 100 µM
TGI (ACHN renal): > 100 µM
GI50 (HCT-116 colon): 11.5 µM
TGI (HCT-116 colon): > 100 µM
GI50 (HCT-15 colon): 22.2 µM
TGI (HCT-15 colon): > 100 µM
GI50 (UACC-257 melanoma): > 100 µM
TGI (UACC-257 melanoma): > 100 µM
GI50 (XF 498 CNS): 98.9 µM
TGI (XF 498 CNS): > 100 µM
GI50 (A498 renal): 26.2 µM
TGI (A498 renal): > 100 µM
GI50 (KM20L2 colon): > 100 µM
TGI (KM20L2 colon): > 100 µM
GI50 (NCI-H522 lung): 61.4 µM
TGI (NCI-H522 lung): > 100 µM
GI50 (CCRF-CEM leukemia): > 100 µM
TGI (CCRF-CEM leukemia): > 100 µM
GI50 (UACC-62 melanoma): > 100 µM
TGI (UACC-62 melanoma): > 100 µM
GI50 (DMS 114 small cell lung): 11.1 µM
TGI (DMS 114 small cell lung): > 100 µM
GI50 (HCC-2998 colon): 75.1 µM
TGI (HCC-2998 colon): > 100 µM
GI50 (SW-620 colon): 99.8 µM
TGI (SW-620 colon): > 100 µM
GI50 (EKVX NSCLC): > 100 µM
TGI (EKVX NSCLC): > 100 µM
GI50 (HOP-18 NSCLC): 5.75 µM
TGI (HOP-18 NSCLC): > 100 µM
GI50 (UO-31 renal): 37.4 µM
TGI (UO-31 renal): > 100 µM
GI50 (OVCAR-4 ovarian): > 100 µM
TGI (OVCAR-4 ovarian): > 100 µM

COc1ccc(N2C(=O)C3CC(c4ccc(C)cc4)c4c([nH]c5ccccc45)C3C2=O)cc1 (centres undefined)
TGI (786-0 renal): 26.6 µM
TGI (SK-MEL-5 melanoma): > 100 µM
TGI (TK-10 renal): > 95.3 µM
TGI (LOX IMVI melanoma): 26.4 µM
TGI (HL-60(TB) leukemia): 30.9 µM
TGI (CAKI-1 renal): > 100 µM
TGI (SF-539 CNS): > 62.5 µM
TGI (DMS 273 small cell lung): > 100 µM
TGI (OVCAR-5 ovarian): > 100 µM
TGI (SNB-75 CNS): 51 µM
TGI (SK-MEL-28 melanoma): 99.7 µM
TGI (IGROV1 ovarian): > 79.6 µM
TGI (SN12C renal): 31.8 µM
TGI (SK-MEL-2 melanoma): > 100 µM
TGI (HOP-92 NSCLC): 73.7 µM
TGI (SR leukemia): 4.55 µM
TGI (NCI-H23 lung): > 93.9 µM
TGI (OVCAR-3 ovarian): 12.3 µM
TGI (HOP-62 NSCLC): 53.7 µM
TGI (MOLT-4 leukemia): > 58.7 µM
TGI (SK-OV-3 ovarian): 93 µM
TGI (COLO 205 colon): > 48.5 µM
TGI (OVCAR-8 ovarian): 38.9 µM
TGI (HT29 colon): > 100 µM
TGI (MALME-3M melanoma): 49.6 µM
TGI (SF-295 CNS): > 86.8 µM
TGI (A549 NSCLC): 43.3 µM
TGI (U251 CNS): 16.8 µM
TGI (DLD-1 colon): > 100 µM
TGI (M19-MEL melanoma): > 100 µM
TGI (M14 melanoma): > 89.2 µM
TGI (SF-268 CNS): > 76.3 µM
TGI (KM12 colon): > 100 µM
TGI (LXFL 529 NSCLC): > 56.1 µM
TGI (K-562 leukemia): > 100 µM
TGI (SNB-19 CNS): > 56.3 µM
TGI (NCI-H226 lung): 28.1 µM
TGI (SNB-78 CNS): 98.7 µM
TGI (ACHN renal): > 63.8 µM
TGI (HCT-116 colon): 17.2 µM
TGI (HCT-15 colon): > 89.7 µM
TGI (UACC-257 melanoma): > 100 µM
TGI (XF 498 CNS): > 74 µM
TGI (A498 renal): 55.6 µM
TGI (KM20L2 colon): > 100 µM
TGI (NCI-H522 lung): 51 µM
TGI (CCRF-CEM leukemia): > 45.6 µM
TGI (UACC-62 melanoma): > 100 µM
TGI (DMS 114 small cell lung): > 86 µM
TGI (HCC-2998 colon): > 100 µM
TGI (SW-620 colon): > 55.3 µM
TGI (NCI-H460 lung): 31.8 µM
TGI (EKVX NSCLC): > 100 µM
TGI (HOP-18 NSCLC): 10.3 µM
TGI (UO-31 renal): > 70.7 µM
TGI (OVCAR-4 ovarian): 27.5 µM
